In patent EP4653437A2 (Innovo Therapeutics Inc., priority 2023, dated 2024):
Each block holds one compound with its values, some of them ahead of it.

How the values were obtained:
human 15-PGDH = target: T1, human 15-PGDH (Homo sapiens, UniProt P15428); experiment: Evaluation of 15-PGDH inhibitory activity (fluorescence enzyme assay, NAD+/PGE2); format: biochemical; settings: human 15-PGDH enzyme, fluorescence Vmax
T1 construct: purchased R&D System 5660-DH
T1 sequence (P15428 1-266): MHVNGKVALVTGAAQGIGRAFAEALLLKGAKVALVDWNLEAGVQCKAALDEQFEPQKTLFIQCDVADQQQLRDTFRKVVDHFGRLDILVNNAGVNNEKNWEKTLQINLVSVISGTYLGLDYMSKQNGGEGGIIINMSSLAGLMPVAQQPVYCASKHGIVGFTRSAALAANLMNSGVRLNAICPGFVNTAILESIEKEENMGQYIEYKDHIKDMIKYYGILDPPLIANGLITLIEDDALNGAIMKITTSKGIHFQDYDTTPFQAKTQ
Procedure: 15-PGDH inhibition activity of Example compounds was measured as follows. 6.7 ng of human 15-PGDH (R&D System# 5660-DH) enzyme (10 µL) was added to a black 96 well plate, 60 µL of buffer (50 mM Tris-HCl, pH 7.5, 0.01% Tween 20) was added, and 10 µL of 200 µM β-Nicotinamide adenine dinucleotide sodium salt (Sigma, Cat# N0632-5G) was added. 10 µL of (10x) compound solution in DMSO was added and reacted for 10 minutes at room temperature.

A549 cells = experiment: Measurement of PGE2-increasing activity in A549 cells (IL-1β stimulated, PGE2 quantified in supernatant); format: cell-based; settings: Homo sapiens, 24 h; concentration of 1 µM of each compound; IL-1β treated A549 cells; read-out: Increased PGE2 production in A549 cells
Procedure: A549 cells were prepared at a cell number of 1 x 10^5/mL in F12K medium containing 10% FBS (Fetal Bovine Serum), and 2 x 10^4/200 µL was added to each well of a 96-well cell culture plate, and then cultured in an incubator with 5% CO2 at 37 °C for 24 hours. After the culture was complete and all F12K medium was removed, all wells were washed once with 100 µL of PBS, and treated with 160 µL of serum-free F12K medium. Then, 20 µL of IL-1β diluted 10-fold to a concentration of 1 ng/mL in serum-free F12K medium was treated to wells to be treated with IL-1β, and 20 µL of serum-free F12K medium was treated to wells not treated with IL-1β. For the wells to be treated with the compound, 20 µL of the compound dissolved in 100% DMSO was diluted to a concentration 10 times of the desired compound concentration in serum-free F12K medium so that the final DMSO concentration treated to the cells was 0.1%, and for the wells not to be treated with the compound, 20 µL of DMSO diluted in serum-free F12K medium so that the final DMSO concentration treated to the cells was 0.1% was treated. In order to confirm the increase or decrease in the secretion amount of PGE2 in the supernatant collected after culturing for 24 hours in an incubator with 5% CO2 at 37 °C, PGE2 was quantified using the Prostaglandin E2 Parameter (SKGE004B).

SMILES: O=C(Nc1cccnc1)c1cncc(-c2cccc3c(C(=O)N4CCCCC4)cnn23)c1 [Example 53, 5-(3-(piperidine-1-carbonyl)pyrazolo[1,5-a]pyridin-7-yl)-N-(pyridin-3-yl)nicotinamide]
IC50 (human 15-PGDH): ≤ 100 nM | fold induction at 1 µM (A549 cells): > 1.5

SMILES: O=C(Nc1ccncc1)c1cncc(-c2cccc3c(C(=O)N4CCCCC4)cnn23)c1 [Example 54, 5-(3-(piperidine-1-carbonyl)pyrazolo[1,5-a]pyridin-7-yl)-N-(pyridin-4-yl)nicotinamide]
IC50 (human 15-PGDH): ≤ 100 nM | fold induction at 1 µM (A549 cells): > 1.5

SMILES: O=C(NCc1ccon1)c1cncc(-c2cccc3c(C(=O)N4CCCCC4)cnn23)c1 [Example 55, N-(isoxazol-3-ylmethyl)-5-(3-(piperidine-1-carbonyl)pyrazolo[1,5-a]pyridin-7-yl)nicotinamide]
IC50 (human 15-PGDH): ≤ 100 nM | fold induction at 1 µM (A549 cells): > 1.5

SMILES: O=C(Nc1ccnnc1)c1cncc(-c2cccc3c(C(=O)N4CCCCC4)cnn23)c1 [Example 56, 5-(3-(piperidine-1-carbonyl)pyrazolo[1,5-a]pyridin-7-yl)-N-(pyridazin-4-yl)nicotinamide]
IC50 (human 15-PGDH): ≤ 100 nM | fold induction at 1 µM (A549 cells): > 1.5

SMILES: O=C(NCc1cncs1)c1cncc(-c2cccc3c(C(=O)N4CCCCC4)cnn23)c1 [Example 57, 5-(3-(piperidine-1-carbonyl)pyrazolo[1,5-a]pyridin-7-yl)-N-(thiazol-5-ylmethyl)nicotinamide]
IC50 (human 15-PGDH): ≤ 100 nM | fold induction at 1 µM (A549 cells): > 1.5

SMILES: O=C(c1ccc(-c2cccc3c(C(=O)N4CCCCC4)cnn23)cc1)N1CCC1 [Example 61, azetidin-1-yl(4-(3-(piperidine-1-carbonyl)pyrazolo[1,5-a]pyridin-7-yl)phenyl)methanone]
IC50 (human 15-PGDH): ≤ 100 nM | fold induction at 1 µM (A549 cells): > 1.5

SMILES: CN1CCC(NC(=O)c2ccc(-c3cccc4c(C(=O)N5CCCCC5)cnn34)cc2)CC1 [Example 65, N-(1-methylpiperidin-4-yl)-4-(3-(piperidine-1-carbonyl)pyrazolo[1,5-a]pyridin-7-yl)benzamide]
IC50 (human 15-PGDH): ≤ 100 nM | fold induction at 1 µM (A549 cells): < 1.5

SMILES: O=C(c1ccc(-c2cccc3c(C(=O)N4CCCCC4)cnn23)cc1)N1CCNCC1 [Example 66, piperazin-1-yl(4-(3-(piperidine-1-carbonyl)pyrazolo[1,5-a]pyridin-7-yl)phenyl)methanone]
IC50 (human 15-PGDH): ≤ 100 nM | fold induction at 1 µM (A549 cells): > 1.5

SMILES: CN1CCN(C(=O)c2ccc(-c3cccc4c(C(=O)N5CCCCC5)cnn34)cc2)CC1 [Example 67, (4-methylpiperazin-1-yl)(4-(3-(piperidine-1-carbonyl)pyrazolo[1,5-a]pyridin-7-yl)phenyl)methanone]
IC50 (human 15-PGDH): ≤ 100 nM | fold induction at 1 µM (A549 cells): > 1.5

SMILES: CC(C)N1CCN(C(=O)c2ccc(-c3cccc4c(C(=O)N5CCCCC5)cnn34)cc2)CC1 [Example 68, (4-isopropylpiperazin-1-yl)(4-(3-(piperidine-1-carbonyl)pyrazolo[1,5-a]pyridin-7-yl)phenyl)methanone]
IC50 (human 15-PGDH): ≤ 100 nM | fold induction at 1 µM (A549 cells): > 1.5

SMILES: O=C(Nc1ccncc1)c1ccc(-c2cccc3c(C(=O)N4CCCCC4)cnn23)cc1 [Example 72, 4-(3-(piperidine-1-carbonyl)pyrazolo[1,5-a]pyridin-7-yl)-N-(pyridin-4-yl)benzamide]
IC50 (human 15-PGDH): ≤ 100 nM | fold induction at 1 µM (A549 cells): > 1.5

SMILES: O=C(c1ccc(-c2cccc3c(C(=O)N4CCCCC4)cnn23)cn1)N1CCOCC1 [Example 74, (7-(6-(morpholine-4-carbonyl)pyridin-3-yl)pyrazolo[1,5-a]pyridin-3-yl)(piperidin-1-yl)methanone]
IC50 (human 15-PGDH): ≤ 100 nM | fold induction at 1 µM (A549 cells): > 1.5

SMILES: CNC(=O)c1ccc(-c2cccc3c(C(=O)N4CCCCC4)cnn23)cn1 [Example 75, N-methyl-5-(3-(piperidine-1-carbonyl)pyrazolo[1,5-a]pyridin-7-yl)picolinamide]
IC50 (human 15-PGDH): ≤ 100 nM | fold induction at 1 µM (A549 cells): > 1.5

SMILES: CC(C)NC(=O)c1ccc(-c2cccc3c(C(=O)N4CCCCC4)cnn23)cn1 [Example 76, N-isopropyl-5-(3-(piperidine-1-carbonyl)pyrazolo[1,5-a]pyridin-7-yl)picolinamide]
IC50 (human 15-PGDH): ≤ 100 nM | fold induction at 1 µM (A549 cells): > 1.5

SMILES: O=C(c1ccc(-c2cccc3c(C(=O)N4CCCCC4)cnn23)cn1)N1CCC1 [Example 77, azetidin-1-yl(5-(3-(piperidine-1-carbonyl)pyrazolo[1,5-a]pyridin-7-yl)pyridin-2-yl)methanone]
IC50 (human 15-PGDH): ≤ 100 nM | fold induction at 1 µM (A549 cells): > 1.5

SMILES: COCCNC(=O)c1ccc(-c2cccc3c(C(=O)N4CCCCC4)cnn23)cn1 [Example 78, N-(2-methoxyethyl)-5-(3-(piperidine-1-carbonyl)pyrazolo[1,5-a]pyridin-7-yl)picolinamide]
IC50 (human 15-PGDH): ≤ 100 nM | fold induction at 1 µM (A549 cells): > 1.5

SMILES: CN(C)CCNC(=O)c1ccc(-c2cccc3c(C(=O)N4CCCCC4)cnn23)cn1 [Example 79, N-(2-(dimethylamino)ethyl)-5-(3-(piperidine-1-carbonyl)pyrazolo[1,5-a]pyridin-7-yl)picolinamide]
IC50 (human 15-PGDH): ≤ 100 nM | fold induction at 1 µM (A549 cells): > 1.5

SMILES: O=C(NCC1CC1)c1ccc(-c2cccc3c(C(=O)N4CCCCC4)cnn23)cn1 [Example 80, N-(cyclopropylmethyl)-5-(3-(piperidine-1-carbonyl)pyrazolo[1,5-a]pyridin-7-yl)picolinamide]
IC50 (human 15-PGDH): ≤ 100 nM | fold induction at 1 µM (A549 cells): > 1.5

SMILES: CN1CCC(NC(=O)c2ccc(-c3cccc4c(C(=O)N5CCCCC5)cnn34)cn2)CC1 [Example 81, N-(1-methylpiperidin-4-yl)-5-(3-(piperidine-1-carbonyl)pyrazolo [1,5-a]pyridin-7-yl)picolinamide]
IC50 (human 15-PGDH): ≤ 100 nM | fold induction at 1 µM (A549 cells): > 1.5

Further lines, with some results ahead:

IC50 (human 15-PGDH): ≤ 100 nM
SMILES: N#CCNC(=O)c1cncc(-c2cccc3c(C(=O)N4CCCCC4)cnn23)c1 [Example 52, N-(cyanomethyl)-5-(3-(piperidine-1-carbonyl)pyrazolo[1,5-a]pyridin-7-yl)nicotinamide]
fold induction at 1 µM (A549 cells): > 1.5

IC50 (human 15-PGDH): ≤ 100 nM
SMILES: CNC(=O)c1ccc(-c2cccc3c(C(=O)N4CCCCC4)cnn23)cc1 [Example 58, N-methyl-4-(3-(piperidine-1-carbonyl)pyrazolo[1,5-a]pyridin-7-yl)benzamide]
fold induction at 1 µM (A549 cells): > 1.5

IC50 (human 15-PGDH): ≤ 100 nM
SMILES: CN(C)C(=O)c1ccc(-c2cccc3c(C(=O)N4CCCCC4)cnn23)cc1 [Example 59, N,N-dimethyl-4-(3-(piperidine-1-carbonyl)pyrazolo[1,5-a]pyridin-7-yl)benzamide]
fold induction at 1 µM (A549 cells): > 1.5

IC50 (human 15-PGDH): ≤ 100 nM
SMILES: CC(C)NC(=O)c1ccc(-c2cccc3c(C(=O)N4CCCCC4)cnn23)cc1 [Example 60, N-isopropyl-4-(3-(piperidine-1-carbonyl)pyrazolo[1,5-a]pyridin-7-yl)benzamide]
fold induction at 1 µM (A549 cells): > 1.5

IC50 (human 15-PGDH): ≤ 100 nM
SMILES: COCCNC(=O)c1ccc(-c2cccc3c(C(=O)N4CCCCC4)cnn23)cc1 [Example 62, N-(2-methoxyethyl)-4-(3-(piperidine-1-carbonyl)pyrazolo[1,5-a]pyridin-7-yl)benzamide]
fold induction at 1 µM (A549 cells): > 1.5

IC50 (human 15-PGDH): ≤ 100 nM
SMILES: CN(C)CCNC(=O)c1ccc(-c2cccc3c(C(=O)N4CCCCC4)cnn23)cc1 [Example 63, N-(2-(dimethylamino)ethyl)-4-(3-(piperidine-1-carbonyl)pyrazolo[1,5-a]pyridin-7-yl)benzamide]
fold induction at 1 µM (A549 cells): > 1.5

IC50 (human 15-PGDH): ≤ 100 nM
SMILES: O=C(NCC1CC1)c1ccc(-c2cccc3c(C(=O)N4CCCCC4)cnn23)cc1 [Example 64, N-(cyclopropylmethyl)-4-(3-(piperidine-1-carbonyl)pyrazolo[1,5-a]pyridin-7-yl)benzamide]
fold induction at 1 µM (A549 cells): > 1.5

IC50 (human 15-PGDH): ≤ 100 nM
SMILES: N#CCCNC(=O)c1ccc(-c2cccc3c(C(=O)N4CCCCC4)cnn23)cc1 [Example 69, N-(2-cyanoethyl)-4-(3-(piperidine-1-carbonyl)pyrazolo[1,5-a]pyridin-7-yl)benzamide]
fold induction at 1 µM (A549 cells): > 1.5

IC50 (human 15-PGDH): ≤ 100 nM
SMILES: N#CCNC(=O)c1ccc(-c2cccc3c(C(=O)N4CCCCC4)cnn23)cc1 [Example 70, N-(cyanomethyl)-4-(3-(piperidine-1-carbonyl)pyrazolo[1,5-a]pyridin-7-yl)benzamide]
fold induction at 1 µM (A549 cells): > 1.5

IC50 (human 15-PGDH): ≤ 100 nM
SMILES: O=C(NCc1ccon1)c1ccc(-c2cccc3c(C(=O)N4CCCCC4)cnn23)cc1 [Example 73, N-(isoxazol-3-ylmethyl)-4-(3-(piperidine-1-carbonyl)pyrazolo[1,5-a]pyridin-7-yl)benzamide]
fold induction at 1 µM (A549 cells): > 1.5
